Read-outs that look alike come from different tables or passages of the source.
What was measured:
[1] = Cytotoxicity: reduction of the viability of MT-4 cells, MTT assay; assay type: cell-based; settings: human
Experimental: (§1) The anti-HIV activity of the synthesized compounds was assessed based on their protection against HIV-1 (NL4-3 strain)-induced cytopathogenicity in MT-4 cells using an MTT assay.[29–33] The cytotoxicity of these compounds was determined based on reduction of the viability of MT-4 cells, as determined by an MTT assay. […] MKN-3 (2) was designed by in silico screening in the same way as MKN-1 (1), and in terms of ligand efficacy MKN-3 (2), with a London dG value of −9.555, has a higher binding affinity than MKN-1 (1), with a London dG value of −9.134, for a CA molecule. The anti-HIV activity of MKN-3 (2) however, is remarkably lower than that of MKN-1 (1). The reason for this might be the poor cell membrane permeability of MKN-3 (2), which therefore could not penetrate the cells. In general, the hydrophobicity of compounds is correlated to their cell membrane permeability. […] We investigated the design of derivatives more hydrophobic than MKN-3 (2). For the design of MKN-3 (2) derivatives, the docking model of MKN-3 (2) and a CA protein was constructed, and a site in the MKN-3 (2) molecule, whose relationship with the interaction with a CA protein is unknown, was sought (Fig. 3). […] Consequently, this amino group was modified by alkylation or amidation, and was converted into a methylene group. Six derivatives (17, 18, 19, TKB063 (25), 26 and 27), with octanoyl, 2-propylpentanoyl, 2-phenylacetyl, i-propyl, n-heptyl or benzyl groups, respectively on the secondary nitrogen atom of the homopiperazine ring of MKN-3 (2), were synthesized. A derivative (29), with a methylene group in place of the secondary amine of the homopiperazine ring, was prepared. […] It was assumed that the anti-HIV activity of these MKN-3 (2) derivatives was increased as a result of their improved hydrophobicity and cell membrane permeability. If the hydrophobicity of such derivatives is higher (log P > 2), the cytotoxicity is higher (CC50 < 10 μM). […] Thus, TKB063 (25) can be seen to have some advantages.
(§2) The inhibitory activity of test compounds against X4-HIV-1 (NL4-3 strain)-induced cytopathogenicity in MT-4 cells,[83] which are maintained in RPMI-1640 containing 10% FBS, was assessed by an MTT assay. Various concentrations of test compound solutions were added to HIV-1-infected MT-4 cells at multiplicity of infection (MOI) of 0.001, and placed in wells of a 96-well microplate. The test compounds and the reference compounds, e.g. AZT, were diluted by factors of two or five, respectively. After 5 days' incubation at 37 °C in a CO2 incubator, the number of viable cells was determined by the MTT assay. Cytotoxicities of the test compounds were determined based on reduction of the viability of MT-4 cells measured in the MTT assay. A reverse transcriptase inhibitor, AZT, was purchased from Sigma Aldrich and employed as a positive control compound with anti-HIV activity.

HIV-1 (NL4-3 strain) = test: Protection against HIV-1 (NL4-3 strain)-induced cytopathogenicity in MT-4 cells, MTT assay; assay type: cell-based; settings: 50% protection from HIV-1 (NL4-3 strain)-induced cytopathogenicity in MT-4 cells
Experimental: as §1
For virus preparation, 293T/17 cells (Invitrogen) maintained in Dulbecco's modified Eagle medium (DMEM) containing 10% FBS, in a T-75 flask were transfected with 10 μg of the pNL4-3 construct by the calcium phosphate method. The supernatant was collected 48 h after transfection, passed through a 0.45 μm filter, and stored at −80 °C as a stock virus.
as §2

HIV = settings: cited from earlier work
MT-4 cells = test: Cytotoxicity: reduction of the viability of MT-4 cells, MTT assay; assay type: cell-based; settings: Table 3; 50% reduction of the viability of MT-4 cells
Experimental: as §1, §2

[2] = Human immunodeficiency virus 1, NL43, MT4, Table 3
[3] = Table 2, 50% reduction of the viability of MT-4 cells, read-out: CC50
[4] = Human immunodeficiency virus 1, NL43, MT4, Table 2
[5] = Human immunodeficiency virus 1, NL43, MT4, Table 4
[6] = Table 4, 50% reduction of the viability of MT-4 cells, read-out: CC50

## CSCCC(C(=O)N1CCNCC1c1c[nH]c2ccccc12)N1CCCN(C(C)C)CC1 (stereo not drawn) [TKB063A (25A)]
[1]; Table 3, 50% reduction of the viability of MT-4 cells, read-out: CC50
  CC50 at 5 days: > 50 µM
HIV-1 (NL4-3 strain); [2]
  EC50: 5 µM

## CSCC[C@H](C(=O)N1CCNCC1c1c[nH]c2ccccc12)N1CCCN(C(C)C)CC1 (stereo partly drawn) [TKB063 (25)]
[1]; [3]
  CC50 at 5 days: > 50 µM
HIV-1 (NL4-3 strain); [4]
  EC50: 4.5 µM
HIV-1 (NL4-3 strain); [2]
  EC50: 4.8 µM
HIV-1 (NL4-3 strain); [5]
  EC50: 9.5 µM

## CCCN1CCCN([C@H](CCSC)C(=O)N2CCNCC2c2c[nH]c3ccccc23)CC1 (stereo partly drawn) [TON02 (37)]
[1]; [6]
  CC50 at 5 days: > 50 µM
HIV-1 (NL4-3 strain); [5]
  EC50: 8 µM

## CSCC[C@H](C(=O)N1CCNCC1c1c[nH]c2ccccc12)N1CCCN(C(=O)Cc2ccccc2)CC1 (stereo partly drawn) [Compound 19]
[1]
  CC50 at 5 days: 33 µM
HIV-1 (NL4-3 strain); [4]
  EC50: 15 µM

## Ibalizumab: Antibody, CD4 binding inhibitor
HIV; CD4 binding inhibitor, ref [68]
  IC50/EC50: 0.00029 µM

## CSCCC(C(=O)N1CCNCC1c1c[nH]c2ccccc12)N1CCCNCC1 (stereo not drawn) [MKN-3 (2)]
[1]; [3]
  CC50 at 5 days: > 50 µM
HIV-1 (NL4-3 strain); [4]
  EC50: 42 µM
HIV-1 (NL4-3 strain); [2]
  EC50: > 50 µM

## CSCCC(C(=O)N1CCNCC1c1c[nH]c2ccccc12)N1CCCN(C(C)C)CC1 (stereo not drawn) [TKB063B (25B)]
MT-4 cells
  CC50: > 50 µM
HIV-1 (NL4-3 strain); Table 3
  EC50: 7.4 µM

## CSCC[C@H](C(=O)N1CCNCC1c1c[nH]c2ccccc12)N1CCCN(Cc2ccccc2)CC1 (stereo partly drawn) [Compound 27]
[1]; [3]
  CC50 at 5 days: 9 µM
HIV-1 (NL4-3 strain); [4]
  EC50: 2.4 µM

## C=C(C)[C@@H]1CC[C@]2(NCCN3CCS(=O)(=O)CC3)CC[C@]3(C)[C@H](CC[C@@H]4[C@@]5(C)CC=C(C6=CC[C@@](CF)(C(=O)O)CC6)C(C)(C)[C@@H]5CC[C@]43C)[C@@H]12 [GSK3640254]
HIV; Maturation inhibitor, ref [69]
  IC90/EC90: (33 nM)

## CSCC[C@H](C(=O)N1CCNCC1c1c[nH]c2ccccc12)N1CCCCCC1 (stereo partly drawn) [Compound 29]
[1]; [3]
  CC50 at 5 days: 32 µM
HIV-1 (NL4-3 strain); [4]
  EC50: 10 µM

## CCN1CCCN([C@H](CCSC)C(=O)N2CCNCC2c2c[nH]c3ccccc23)CC1 (stereo partly drawn) [TON01 (36)]
[1]; [6]
  CC50 at 5 days: > 50 µM
HIV-1 (NL4-3 strain); [5]
  EC50: 20 µM

## C[C@H]1CO[C@@H]2Cn3cc(C(=O)NCc4ccc(F)cc4F)c(=O)c(O)c3C(=O)N12 [Cabotegravir]
HIV; Integrase inhibitor, ref [70]
  IC50/EC50: 0.00025 µM

## COc1cnc(-n2cnc(C)n2)c2c1c(C(=O)C(=O)N1CCN(C(=O)c3ccccc3)CC1)cn2COP(=O)(O)O [Fostemsavir]
HIV; Entry inhibitor, ref [67]
  IC50/EC50: 0.0007 µM

## Maraviroc
HIV; CCR5 antagonist, ref [65]
  IC90/EC90: (1.0 nM)

## CCCCCCCN1CCCN([C@H](CCSC)C(=O)N2CCNCC2c2c[nH]c3ccccc23)CC1 (stereo partly drawn) [Compound 26]
[1]; [3]
  CC50 at 5 days: 4.4 µM
HIV-1 (NL4-3 strain); [4]
  EC50: 2.6 µM

## CCC(C)N1CCCN([C@H](CCSC)C(=O)N2CCNCC2c2c[nH]c3ccccc23)CC1 (stereo partly drawn) [TON03 (38)]
[1]; [6]
  CC50 at 5 days: > 50 µM
HIV-1 (NL4-3 strain); [5]
  EC50: 6.3 µM

## CCCC(CCC)C(=O)N1CCCN([C@H](CCSC)C(=O)N2CCNCC2c2c[nH]c3ccccc23)CC1 (stereo partly drawn) [Compound 18]
[1]; [3]
  CC50 at 5 days: 9.1 µM
HIV-1 (NL4-3 strain); [4]
  EC50: > 9.1 µM

## CCCCCCCC(=O)N1CCCN([C@H](CCSC)C(=O)N2CCNCC2c2c[nH]c3ccccc23)CC1 (stereo partly drawn) [Compound 17]
[1]; [3]
  CC50 at 5 days: 8.8 µM
HIV-1 (NL4-3 strain); [4]
  EC50: 6 µM

## Enfuvirtide (T-20): Peptide, fusion inhibitor
HIV; Fusion inhibitor, ref [66]
  IC50/EC50: 0.003 µM

## CSCC[C@H](C)OC(=O)[C@@H](N)c1ccccc1-c1c[nH]c2ccccc12 [MKN-1 (1), reference compound]
[1]; [3]
  CC50 at 5 days: 15 µM
HIV-1 (NL4-3 strain); [4]
  EC50: 2.2 µM
HIV-1 (NL4-3 strain); [2]
  EC50: 2.3 µM

## CC(C)(C#Cc1ccc(-c2ccc(Cl)c3c(NS(C)(=O)=O)nn(CC(F)(F)F)c23)c([C@H](Cc2cc(F)cc(F)c2)NC(=O)Cn2nc(C(F)(F)F)c3c2C(F)(F)[C@@H]2C[C@H]32)n1)S(C)(=O)=O [Lenacapavir]
HIV; Capsid inhibitor, ref [71]
  IC50/EC50: 0.0001 µM

## Cc1cn([C@H]2C[C@H](N=[N+]=[N-])[C@@H](CO)O2)c(=O)[nH]c1=O [AZT, reference compound]
HIV-1 (NL4-3 strain); Table 2
  EC50: 0.021 µM
HIV-1 (NL4-3 strain); Table 3
  EC50: 0.025 µM
HIV-1 (NL4-3 strain); Table 4
  EC50: 0.04 µM
